Reference: patent US10617705B1, “Isoquercitrin compositions” (priority 2019, dated 2020)

Assay: Stability of isoquercitrin (or catechin) in solution with L-arginine and sodium ascorbate at 50° C., by HPLC
Assay type: physicochemical
Settings: aqueous solution with L-arginine and sodium ascorbate; for amount of intact compound remaining, of the initial amount in the solution: HPLC
Procedure: An exemplary isoquercitrin/L-arginine mixture was prepared by mixing 0.01 mol isoquercitrin with an aqueous solution containing 0.02 mol L-arginine, heating the mixture to 80° C. until the isoquercitrin dissolved completely, and adding 0.001 mol sodium ascorbate. After cooling, the stability of isoquercitrin was tested by heating the mixture to 50° C. and quantifying by HPLC the amount of intact isoquercitrin remaining after 0 h, 5 h, and 24 h.

- amount of intact compound remaining, of the initial amount in the solution (5 h at 50° C.): 100%
- amount of intact compound remaining, of the initial amount in the solution (24 h at 50° C.): 98.1%
- compound degraded (after 24 h at 50° C.): 1.9%
Compound: O=c1c(O[C@@H]2O[C@H](CO)[C@@H](O)[C@H](O)[C@H]2O)c(-c2ccc(O)c(O)c2)oc2cc(O)cc(O)c12 [isoquercitrin]
